Results: patent publication US8193225B2, “Isoxazole amides, derivatives and methods of chemical induction of neurogenesis” (priority 2006, dated 2012)
“Also recorded” adds a separate entry of the source.

What was measured:
HCN cells [1] = test: in vitro neuronal differentiation of HCN cells (morphology, Tuj1 staining); format: cell-based, rat; details: for morphologic neuronal differentiation of NPCs: 25 μM AMPA or 50 μM Muscimol; for effect of inhibitor on Isx-9 neurogenic activity (Tuj1+ cells): Isx-9-treated HCN cells, KN93 2 d cultures
[2] = system: MEF2 reporter gene (3XMRE-luc); test: MEF2 reporter gene (3XMRE-luc) assay in HCN cells; format: cell-based, rat; details: Isx-9-treated HCN cells; KN93, KN92 5 μM (10, 5, 1 μM), G66976 200 nM
HDAC5 = test: protein blotting of phospho-HDAC5, HDAC4 and phospho-CaMKII in HCN cells; format: cell-based, rat; details: Isx/Isx-9-treated NSCs; KN93, KN92 5 μM
neuroD-luciferase = neuroD-luciferase reporter gene assay in HCN cells; format: cell-based, rat; details: for effect of inhibitor on neuroD-luc activity of Isx/Isx-9-treated cells: inhibitor added to Isx/Isx-9-treated HCNs/NPCs, 24 h
pHDAC5:14-3-3-luciferase = test: mammalian 2-hybrid luciferase assay (pHDAC5:14-3-3-luciferase); format: cell-based, rat; details: Isx-9-treated NSCs
Method: FIGS. 5A-F—CaMK is the major HDAC kinase activated by Isx small-molecules in NSCs. […] The doses of KN93 and KN92 in reporter assays were 10, 5, and 1 μM. (FIG. 5D) A schematic diagram of a mammalian 2-hybrid luciferase assay system (pHDAC5:14-3-3-luciferase) which is dependent on the interaction of HDAC5 and 14-3-3. […] (FIG. 5E) Shown are representative images and quantification of the percentage of Isx-9-treated HCNs showing GFP-HDAC5 localization in nuclear (Nuc), cytoplasmic (Cyto), or both compartments (Nuc/Cyto) with and without KN93 or KN92 treatment after 24 h. […] Scale bar: 5 μm. Values in […] represent the average of 12 replicates±SD. Values in FIG. 5E represent the average of 2 replicates+SD of one representative experiment from two independent experiments.
Reporter gene assay. All reporter gene assays were done in 96-well format, and each data point represents the average of 12 replicates. Reporter genes included neuroD-, gIuR2-, MREx3-, NR1-, and pHDAC5:14-3-3-luciferase and each well contained ˜25,000 cells in a volume of 100 μl. 5×10^6 HCN cells were transfected with 5 μg DNA by electroporation (Amaxa) and plated in growth media overnight. In the case of pHDAC5:14-3-3-luciferase, cells were transfected with 2 μg of each plasmid. Compounds were added the day following transfection and luciferase assays were performed 24 or 48 h later. […]

HCN cells [3] = test: RT-PCR and protein blotting of gene expression in HCN cells; format: cell-based, rat; details: NPCs, 50 μM Muscimol
Nkx2.5-luc = Nkx2.5-luc reporter in P19CL6 clone #5-1; format: cell-based, mouse
Description: Assay development. An Nkx2.5-luc transgene was constructed by replacing the two coding sequence exons of NRx2.5 locus from the ATG with the coding sequence of luc (from pGL3-basic vector, Promega) in an ˜180,000 base pair-long BAC (FIG. 11). The recombinant BAC DNA was introduced into pluripotent P19CL6 cells using Lipofectamine-2000 (Invitrogen) and neo^R clones were selected, and tested for chemically inducible luc activity with sodium butyrate (NaB). #5-1, a clonal stem cell line with low basal and at least a 4-fold higher NaB-inducible luciferase activity compared to vehicle control (DMSO), yielding a Z′ value of 0.7 in 384-well plate format (Zhang et al. 1999), was chosen for the HTS.

HCN cells [4] = test: cell death in HCN cells (propidium iodide/Hoescht live staining); format: cell-based, rat; details: 2 μM Q-VD-Oph
Method: Neural stem cell culture, in vitro differentiation, and CaMK inhibitor studies. The hippocampal neural stem/progenitor (NSC) line used in this study (HCN cells) were originally isolated from adult (8-10 wks old) female Fisher 344 rats and have been characterized previously (Gage et al., 1995; Palmer et al., 1997). HCN cells were cultured in DMEM:F12 (Omega Scientific) with N2 supplement (Invitrogen) and basic fibroblast growth factor (20 ng/ml FGF-2) (PeproTech). The mouse whole brain neural stem/progenitors (MWB) were derived from adult (8-10 wks old) C57BL/6 mice that have been characterized previously (Ray and Gage, 2006). […]
Immunostaining, GFP-HDAC5 visualization, and fluorescence microscopy. […] Quantification of cell phenotype was done by sampling 6-8 random fields in each well and counting a total of 250-500 cells at 20× magnification. […] For quantification of live/dead cells, images were taken of cultures live-stained with propidium iodide and Hoescht 33342 at 20× magnification, and 500-1000 cells were counted by sampling 6-8 random fields in each well. For quantification of HDAC5 subcellular localization, 20× images were taken of live cultures, and 40-50 GFP+ cells were counted by sampling 3 random fields in each well. […]

Cc1onc(O)c1CC(N)C(=O)O (stereo not drawn) [AMPA, α-amino-3-hydroxy-5-methyl isoxazole-4-proprionic acid]
morphologic neuronal differentiation of NPCs (HCN cells [1]): failed to induce morphologic neuronal differentiation

Cn1c2ccccc2c2c3c(c4c5ccccc5n(CCC#N)c4c21)CNC3=O [Isx G66976]
effect of kinase inhibitor on Isx-9-mediated MEF2 reporter activation [2]: did not significantly affect Isx-induced reporter gene expression; also recorded: completely ineffective
effect of inhibitor on phospho-HDAC5 and phospho-CaMKII levels (HDAC5): did not
effect of inhibitor on neuroD-luc activity of Isx/Isx-9-treated cells (neuroD-luciferase): did not significantly affect Isx-induced reporter gene expression

COc1ccc(S(=O)(=O)Nc2ccccc2CN(C)C/C=C/c2ccc(Cl)cc2)cc1 [KN92]
HDAC5 kinase activity (pHDAC5:14-3-3-luciferase) (pHDAC5:14-3-3-luciferase): not
effect of kinase inhibitor on Isx-9-mediated MEF2 reporter activation [2]: had no effect
effect of inhibitor on phospho-HDAC5 and phospho-CaMKII levels (HDAC5): had no effect

COc1ccc(S(=O)(=O)N(CCO)c2ccccc2CN(C)C/C=C/c2ccc(Cl)cc2)cc1 [KN93]
HDAC5 kinase activity (pHDAC5:14-3-3-luciferase) (pHDAC5:14-3-3-luciferase): completely blocked HDAC5 kinase activity
effect of kinase inhibitor on Isx-9-mediated MEF2 reporter activation [2]: extremely effective in blocking Isx-mediated reporter gene expression; also recorded: blocked Isx-9-mediated MEF2 reporter activation
effect of inhibitor on phospho-HDAC5 and phospho-CaMKII levels (HDAC5): blocked HDAC5 phosphorylation; also recorded: decreased phospho-HDAC5 and active phospho-CaMKII levels
effect of inhibitor on Isx-9 neurogenic activity (Tuj1+ cells) (HCN cells [1]): resulted in an inhibition of Isx-9 neurogenic activity
effect of inhibitor on neuroD-luc activity of Isx/Isx-9-treated cells (neuroD-luciferase): extremely effective in blocking Isx-mediated reporter gene expression

C[C@]12N[C@H](Cc3ccccc31)c1ccccc12 [MK801]
effect of inhibitor on neuroD-luc activity of Isx/Isx-9-treated cells (neuroD-luciferase): small but significant decrease; also recorded: attenuated neuroD-luc activity

NCc1cc(O)no1 [Muscimol, 5-aminomethyl-3-hydroxy-isoxazole]
GluR2/3 protein expression (HCN cells [3]): increase
morphologic neuronal differentiation of NPCs (HCN cells [1]): failed to induce morphologic neuronal differentiation
neuroD-luciferase activity (neuroD-luciferase; NPCs, 15 μM Muscimol): an increase in neuroD-luciferase activity

CCCC(=O)[O-].[Na+] [NaB, sodium butyrate]
inducible luciferase activity compared to vehicle control (DMSO) (Nkx2.5-luc): ≥ 4 fold

CC(C)[C@H](NC(=O)c1ccc2ccccc2n1)C(=O)N[C@@H](CC(=O)O)C(=O)COc1c(F)cccc1F [Q-VD-Oph]
cell death in Isx-9-treated HCNs (HCN cells [4]): blocks cell death
effect of inhibitor on Isx-9 neurogenic activity (Tuj1+ cells) (HCN cells [1]): does not further increase Tuj1+ cells
